Test: xn = mol fraction of the nth substance listed
Settings: 298.15 K, 100 kPa

Row | electrical conductivity (x2 = 0) [S/m] | viscosity (x2 = 0) [mPa·s] | viscosity (x1 = 0.0895) [mPa·s] | electrical conductivity (x1 = 0.1758) [S/m] | viscosity (x1 = 0.1758) [mPa·s] | electrical conductivity (x1 = 0.3578) [S/m] | viscosity (x1 = 0.3578) [mPa·s] | electrical conductivity (x1 = 0.4397) [S/m] | viscosity (x1 = 0.4397) [mPa·s] | electrical conductivity (x1 = 0.6482) [S/m] | viscosity (x1 = 0.6482) [mPa·s] | viscosity (x1 = 0.8121) [mPa·s] | Compound
1 | 0.001 | 17.41 |  |  |  |  |  |  |  |  |  |  | OCCO + CCCC[n+]1ccn(C)c1.F[B-](F)(F)F
2 |  |  | 15.5 | 0.63 | 15.52 | 0.727 | 18.87 | 0.766 | 21.3 | 0.577 | 31.97 | 51.8 | CCCC[n+]1ccn(C)c1.F[B-](F)(F)F + OCCO
